Measured values taken from patent US4431664A, “Compound with antiulcerogenic activity, process for the preparation thereof and pharmaceutical composition therefrom” (Ausonia Farmaceutici s.r.l., priority 1981, dated 1984).

Test system: mouse
Assay: Toxicity by single intraperitoneal administration, LD50 (Litchfield and Wilcoxon)
Assay type: in vivo
Details: i.p., in words
Excerpt: The toxicity of AP 880 by single administration has been studied in comparison with the toxicity of ranitidine in mouse, by administration of larger and larger doses of compound (I) by the intraperitoneal route. The LD50 values, determined according to the method of Litchfield and Wilcoxon (J. Pharm. Exp. Ther. 96-99, (1949)) are reported in the following Table: […]

`CN(C)Cc1ccc(CSCCNC(=C[N+](=O)[O-])NCc2ccc3c(c2)OCO3)o1` [AP 880, N-(2-(((5-(dimethylamino)-methyl-2-furanyl)-methyl)-thio)-ethyl)-N'-(3,4-methylenedioxybenzyl)-2-nitro-1,1-ethendiamine] was tested, and the “toxicity with respect to ranitidine” value was “substantially lower toxicity”.
